In patent US20030165475A1, “Non-lethal methods for conditioning a recipient for bone marrow transplantation” (priority 1993, published 2003):
Values joined by “and” are separate entries in the source; they are usually repeats but may differ in a detail not shown here. Equal values may be shown once.

Test system: B10 mice
Assay: Glucose phosphate isomerase-1 (GPI-1) typing of platelets and erythrocytes in mixed allogeneic chimeras
Type: in vivo, mouse
Conditions: 5 Gy TBI-based regimen, individual animals, 2 months
Method: Peripheral blood (0.9 ml) was collected into heparinized microcentrifuge vials. The blood was spun for four seconds at the maximal setting (14,000 rpm) of an Eppendorf microcentrifuge (Beckman #5415). This setting was chosen through an optimization strategy in which force and times were varied as a function of retrieved platelet number. This duration included the acceleration phase, which is incomplete when power is curtailed at the four second mark. After this, the samples were allowed to slow to a halt without braking. Platelet-rich plasma was then carefully aspirated with a disposable polyethylene pipette, avoiding any disturbance of the buffy coat. Triplicate platelet counts were obtained using a Coulter Model ZB1 counter (Hialeah, Fla.), and the average (variation 5%) calculated. […]
Typing of red blood cell (RBC) and platelet phenotypes was performed using the GPI-1 assay (Ildstad, et al., 1991, J Exp Med 174:467). The precipitation pattern for BALB/c mouse and B10 mouse were performed as controls and determined to be totally disparate. […] Percentages were determined by comparison with the positive control. […] In titrations performed to determine the sensitivity of this assay, as low as 2% of BALB/c RBC titrated into normal B10RBC could be reliably detected (Ildstad, et al., 1991, J Exp Med 174:467). […]

For `O=P1(N(CCCl)CCCl)NCCCO1` (centres unmarked) [CyP, cyclophosphamide], the “% BALB/c RBC” value was 100% and the “% BALB/c platelets” value was 71% and 78% and 69% and 31%.
